Data reported in ChEMBL document CHEMBL1145676, “Isolation of two flavonoids from Tanacetum microphyllum as PMA-induced ear edema inhibitors” (1997).

What was measured:
Type in all cases: functional
Mus musculus [1] = assay: Inhibition of PMA-induced ear edema in Swiss mouse at 3 mg/ear after 5 hrs
Mus musculus [2] = assay: Inhibition of PMA-induced ear edema in Swiss mouse at 3 mg/ear after 1 hr
Mus musculus [3] = assay: Inhibition of PMA-induced ear edema in Swiss mouse at 3 mg/ear after 3 hrs

Compound: COc1ccc(-c2oc3cc(O)cc(O)c3c(=O)c2OC)cc1 [ERMANIN]
- inhibition (INH) (Mus musculus [1]): 78.3%
- inhibition (INH) (Mus musculus [2]): 95.1%
- inhibition (INH) (Mus musculus [3]): 71.1%

Compound: COc1ccc2c(c1)c(CC(=O)O)c(C)n2C(=O)c1ccc(Cl)cc1 [INDOMETHACIN]
- inhibition (INH) (Mus musculus [1]): 51.2%
- inhibition (INH) (Mus musculus [2]): 47.3%
- inhibition (INH) (Mus musculus [3]): 38.6%

Compound: COc1ccc(-c2oc3cc(O)c(OC)c(O)c3c(=O)c2OC)cc1 [SANTIN]
- inhibition (INH) (Mus musculus [1]): 81.1%
- inhibition (INH) (Mus musculus [2]): 80.5%
- inhibition (INH) (Mus musculus [3]): 76.3%
